Experimental data: US20070010568A1, “Substituted azabicyclo hexane derivatives as muscarinic receptor antagonists” (priority 2003, published 2007)

Columns and labels:
M2 muscarinic receptor = target: T1, M2 muscarinic receptor (Rattus norvegicus, UniProt P10980); test: Radioligand binding assay, [3H]-N-methylscopolamine, rat heart membranes; conditions: [3H]NMS, 24-25° C., read-out: Receptor Binding Assay M2 (pKi) (converted)
T1 construct: Submandibular glands and heart were isolated and placed in ice cold homogenising buffer; from tissue; host or cells: rat heart membrane homogenate
T1 sequence (P10980 1-466): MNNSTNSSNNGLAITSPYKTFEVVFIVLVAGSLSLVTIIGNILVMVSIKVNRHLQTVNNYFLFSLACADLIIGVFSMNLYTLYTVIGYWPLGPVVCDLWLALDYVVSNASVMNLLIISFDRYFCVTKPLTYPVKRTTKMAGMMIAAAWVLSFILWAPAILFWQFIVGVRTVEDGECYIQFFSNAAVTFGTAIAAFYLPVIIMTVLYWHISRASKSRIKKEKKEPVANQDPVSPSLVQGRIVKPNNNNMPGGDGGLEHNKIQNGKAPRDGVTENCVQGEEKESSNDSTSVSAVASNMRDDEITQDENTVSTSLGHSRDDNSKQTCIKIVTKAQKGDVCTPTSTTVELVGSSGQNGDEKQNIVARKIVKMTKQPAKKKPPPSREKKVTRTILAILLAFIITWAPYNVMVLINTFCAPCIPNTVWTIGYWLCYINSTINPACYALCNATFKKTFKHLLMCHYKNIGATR
Experimental: (§1) The affinity of test compounds for M2 and M3 muscarinic receptor subtypes was determined by [^3H]-N-methylscopolamine binding studies using rat heart and submandibular gland respectively as described by Moriya et al., (Life Sci., 1999; 64 (25): 2351-2358).
(§2) Membrane preparation: Submandibular glands and heart were isolated and placed in ice cold homogenising buffer (EPES 20 mM, 10 mM EDTA, pH 7.4) immediately after sacrifice. The tissues were homogenised in 10 volumes of homogenising buffer and the homogenate was filtered through two layers of wet gauze and filtrate was centrifliged at 500 g for 10 min. The supernatant was subsequently centrifuged at 40,000 g for 20 min. The pellet thus obtained was resuspended in same volume of assay buffer (HEPES 20 mM, EDTA 5 mM, pH 7.4) and were stored at −70° C. until the time of assay.
(§3) Ligand binding assay: The compounds were dissolved and diluted in DMSO. The membrane homogenates (150-250 μg protein) were incubated in 250 μl of assay buffer (HEPES 20 mM, pH 7.4) at 24-25° C. for 3 h. Non-specific binding was determined in the presence of 1 μM atropine. The incubation was terminated by vaccum filtration over GF/B fiber filters(Wallac). The filters were then washed with ice cold 50 mM Tris HCl buffer (pH 7.4). The filter mats were dried and bound radioactivity retained on filters was counted. The IC50 & Kd were estimated by using the non-linear curve fitting program using G Pad Prism software. The value of inhibition constant Ki was calculated from competitive binding studies by using Cheng & Prusoff equation (Biochem Pharmacol, 1973,22: 3099-3108), Ki=IC50/(1+L/Kd), where L is the concentration of [^3H]NMS used in the particular experiment. pKi=−log Ki Functional Experiments Using Isolated Rat Bladder: Methodology: […]

M3 muscarinic receptor = target: T2, M3 muscarinic receptor (Rattus norvegicus, UniProt P08483); test: Radioligand binding assay, [3H]-N-methylscopolamine, rat submandibular gland membranes; conditions: [3H]NMS, 24-25° C., read-out: Receptor Binding Assay M3 (pKi) (converted)
T2 construct: Submandibular glands and heart were isolated and placed in ice cold homogenising buffer; from tissue; host or cells: rat submandibular gland membrane homogenate
Experimental: as §1, §2, §3

T2 sequence (P08483 whole entry): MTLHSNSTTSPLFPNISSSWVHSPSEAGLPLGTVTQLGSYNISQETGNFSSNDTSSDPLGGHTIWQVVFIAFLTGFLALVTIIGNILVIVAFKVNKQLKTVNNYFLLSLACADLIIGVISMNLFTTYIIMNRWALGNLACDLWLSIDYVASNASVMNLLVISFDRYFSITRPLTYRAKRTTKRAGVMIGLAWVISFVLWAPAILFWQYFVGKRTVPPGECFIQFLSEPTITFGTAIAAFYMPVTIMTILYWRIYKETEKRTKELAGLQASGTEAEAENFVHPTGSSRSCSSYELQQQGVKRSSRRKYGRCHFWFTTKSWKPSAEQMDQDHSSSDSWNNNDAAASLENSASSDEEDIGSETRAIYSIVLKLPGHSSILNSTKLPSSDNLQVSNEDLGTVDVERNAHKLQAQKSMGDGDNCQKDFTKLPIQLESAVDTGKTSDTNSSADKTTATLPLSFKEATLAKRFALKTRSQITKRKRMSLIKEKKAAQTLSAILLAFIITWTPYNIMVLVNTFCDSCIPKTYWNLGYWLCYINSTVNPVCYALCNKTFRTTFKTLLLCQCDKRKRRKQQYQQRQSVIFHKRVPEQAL

SMILES	Ki (M2 muscarinic receptor) [µM]	Ki (M3 muscarinic receptor) [µM]
O=C(CCNC(=O)CNC(=O)CC(c1ccccc1)(c1ccccc1)c1ccccc1)NC[C@@H]1[C@H]2CN(Cc3ccccc3)C[C@@H]12 [Compound No. 5, (1α, 5α, 6α)-N-[(3-oxopropyl)amino-2-oxoethyl-3-benzyl-3-azabicyclo [3.1.0]-hexyl-6-aminomethyl]-3,3,3-triphenyl propionamide]	> 1	> 1
O=C(N[C@H]1[C@@H]2CNC[C@@H]21)C(O)(c1ccc(F)cc1)c1ccc(F)cc1 [Compound No. 7, (1α, 5α, 6α)-N-[3-azabicylo[3.1.0]-hexyl-6-amino-yl]-2-hydroxy-2,2-bis-4-fluorophenyl acetamide]	> 1	> 1
O=C(CC(c1ccccc1)(c1ccccc1)c1ccccc1)N[C@H]1[C@@H]2CN(CC(=O)c3ccc4c(c3)CCO4)C[C@@H]21 [Compound No. 4, (1α, 5α, 6α)-N-[3-{2-oxo-2-(2,3-dihydrobenzofuran-5-yl)ethyl}-3-azabicyclo[3.1.0]-hexyl-6-amino-yl]-3,3,3-triphenyl propionamide]	> 1	> 1
O=C(CC(c1ccccc1)(c1ccccc1)c1ccccc1)N[C@H]1[C@@H]2CN(CCc3ccc4c(c3)OCO4)C[C@@H]21 [Compound No. 3, (1α, 5α, 6α)-N-[3-{2-(3,4-methylenedioxy-phenyl)ethyl}-3-azabicyclo [3.1.0]-hexyl-6-amino-yl]-3,3,3-triphenylpropionamide]	> 1	> 1
O=C(CC(c1ccccc1)(c1ccccc1)c1ccccc1)N[C@H]1[C@@H]2CN(Cc3ccccc3)C[C@@H]21 [Compound No. 1, (1α, 5α, 6α)-N-[3-benzyl-3-azabicyclo[3.1.0]-hexyl-6-amino-yl]-3,3,3-triphenylpropionaniide]	> 1	> 1
CC(C)=CCCN1C[C@@H]2[C@H](C1)[C@H]2NC(=O)CC(c1ccccc1)(c1ccccc1)c1ccccc1 [Compound No. 2, (1α, 5α, 6α)-N-[3-(4-methyl-3-pentenyl)-3-azabicyclo[3.1.0]-hexyl-6-amino-yl]-3,3,3-triphenyl propionamide]	> 1	> 1
CCCOC(C(=O)N[C@H]1[C@@H]2CNC[C@@H]21)(c1ccc(F)cc1)c1ccc(F)cc1 [Compound No. 8, (1α, 5α, 6α)-N-[3-azabicyclo[3.1.0]-hexyl-6-amino-yl]-2-propyloxy-2,2-bis-4-fluorophenyl acetamide]	> 1	> 1
O=C(CNC(=O)CC(c1ccccc1)(c1ccccc1)c1ccccc1)NCCC(=O)N[C@H]1[C@@H]2CN(Cc3ccccc3)C[C@@H]21 [Compound No. 6, (1α, 5α, 6α)-N-[(3-oxopropyl]amino-2-oxoethyl-3-benzyl-3-azabicyclo [3.1.0]-hexyl-6-amino-yl]-3,3,3-triphenyl propionamide]	> 1	> 1
